# Measured values as given in article PMC12984539 (European journal of pharmacology, 2024).
# Tested on: μ receptor
# Test: Hemi-equilibrium simulation of buprenorphine antagonism of DAMGO
# Settings: chosen to match the experimental DAMGO concentration-response curve
structure (smiles),measurement,value
"C[C@@H](NC(=O)[C@@H](N)Cc1ccc(O)cc1)C(=O)NCC(=O)N(C)[C@@H](Cc1ccccc1)C(=O)NCCO [DAMGO, [D-Ala^2, N-MePhe^4, Gly-ol]-enkephalin]",τ (efficacy of the agonist in the system),2.3
